Test results taken from publication PMC8840040, “Pharmacokinetic Characterization of the DDAH1 Inhibitors ZST316 and ZST152 in Mice Using a HPLC-MS/MS Method” (Molecules, 2022).
Several values for one entry are separate records, joined by “and”; a condition that tells them apart may be missing. Equal entries are not always repeated. Where two headings read alike, the source gives them in different places.

What was measured:
[1] = Stability in mouse plasma and urine; format: in vitro ADME; settings: for stability in urine stored frozen: mice urine, −20 °C
Method: The extraction recovery, established on QCs at the concentrations of LLOQ (i.e., 5 ng/mL), at 15 and 250 ng/mL, fell in the range 88.9%–94.6% and 87.9%–117.5% for ZST316 and ZST152, respectively. The LLOQ in plasma was 5.0 ng/mL for both compounds, with precision of 7.1% and 4.1% and accuracy of 95.8% and 106.1% (n = 6) for ZST316 and ZST152, respectively (Table 1). We decided to validate this value as LLOQ even though the limit of detection (LOD) reached in the initial set up phase of the methods was established for both compounds at 1 ng/mL (S/N > 4.0). However, such sensitivity was not required as the expected range of activity (IC50) was markedly higher than the LLOQ value for both compounds. The linearity of the method, evaluated over three different analytical runs in the concentration range 5.0–500.0 ng/mL, was acceptable for both analytes, with an average coefficient of determination (R^2) of 0.990 and 0.992 for ZST316 and ZST152, respectively. […] Both ZST316 and ZST152 were stable in frozen plasma for at least one month at −20 °C. No chromatographic carry-over effect was observed injecting a blank sample after the highest standard calibration point. The method was considered suitable for preclinical pharmacokinetic investigations.
Both ZST316 and ZST152 were stable at 37 °C in mice urine for at least 24 h and stored frozen at −20°C for one month. No chromatographic carry-over effect was observed injecting a blank sample after the highest standard calibration point.

[2] = Plasma pharmacokinetics and urinary elimination after single oral and intravenous administration; format: in vivo, FVB mice; settings: for urinary excretion, range over oral and intravenous route: 24 h urine, p.o. 60 mg/Kg to i.v. 30 mg/Kg; for clearance: read-out: Clp (plasma clearance) (converted); for Vd: read-out: Vd (volume of distribution); for bioavailability: oral, 60 mg/Kg, read-out: F % (bioavailability); for time up to which detectable in plasma: concentration close to the LLOQ (5 ng/mL)
Method: Mice were treated with ZST316 and ZST152 using a dose of 60 mg/Kg (oral gavage) and 30 mg/Kg (intravenous bolus). For pharmacokinetic sampling, blood was collected at 15 and 30 min, and 1, 3, 8, and 24 h post dose. Three mice were analyzed per each time point. After the animals were anesthetized with isoflurane, the blood was drained from the retro-orbital plexus into heparinized tubes, and then centrifuged for 10 min at 4000× g at 4 °C to separate plasma. A 24-h urine fraction was collected in three mice for each drug and route of administration. Plasma and urine samples were stored at −20 °C until analysis by HPLC-MS/MS.
In the preliminary phase of the method set up, we tried different solvents, 2-propanol, methanol (CH3OH), and acetonitrile (CH3CN) at different pH conditions, quickly obtaining a satisfactory recovery with CH3OH: 0.1% formic acid (HCOOH). Briefly, to assay ZST316, 10 µL of IS (ZST152 WS: 500 ng/mL) were added to 100 µL of plasma study samples, standards, or QCs in a polypropylene tube. The sample was then added with 10 µL of ammonium formate (NH4HCO2) 50 mM, mixed by vortex and added with 400 µL CH3OH: 0.1% HCOOH, vortex mixed again for 30 s and centrifuged at 13,200 rpm for 10 min at 4 °C. A volume of 450 µL of the supernatant was transferred to a new polypropylene tube, dried under nitrogen flow, and reconstituted with 100 µL of MP A:B (1:1, v/v). Finally, the mixed samples were centrifuged at 13,200 rpm for 10 min at 4 °C and the supernatant was transferred into glass vials for HPLC-MS/ MS analysis. Plasma samples containing drug concentrations above the highest standard point of the calibration curve were reanalyzed following dilution with the control matrix.
To assay ZST316, 5 µL of IS (ZST152 WS: 100 µg/mL) were added to 50 µL of urine samples, standards, or QCs in a polypropylene tube. After vortex mixing, 490 µL of MP A:B (1:1; v/v) were added to 10 µL of each sample to obtain a final dilution of 1:50. Samples were vortex mixed again for 30 s, centrifuged at 13,200 rpm for 10 min at 4 °C, and, finally, the supernatant was transferred into glass vials for HPLC-MS/ MS analysis. The urine samples with drug concentrations above the highest standard point of the calibration curve were reanalyzed following dilution with control matrix.
[…] chromatography was performed using a series 200 HPLC system (Perkin Elmer, Waltham, MA, USA) under gradient conditions with separation on a HILIC column, 3 µm, 100 A, 2.1 × 150 mm (Waters, Milford, MA, USA), coupled with a 3 µm, 3.9 × 5.0 mm guard column of the same material at the flow rate of 0.2 mL/min. Gradient features: 10% mobile phase (MP) A (NH4HCO2 10 mM, 10% CH3CN, 0.1% HCOOH) and 90% MP B (CH3CN, 0.1% HCOOH) as the initial constant condition; then to 90% MP A in 6 min and the constant condition for 1.5 min. Return to the start condition in 0.5 min and conditioning for 5.5 min. Total run time: 13.5 min. Mass spectrometric detection was performed using an API 4000 triple quadrupole mass spectrometer (SCIEX, Framingham, MA, USA) supplied with a Turbo Ion Spray source set at 350 °C and −4200 V, analyzing biological samples with electrospray ionization (ESI) operating in negative ion mode. Purified air was used as nebulizer gas (Gas 1) and heater gas (Gas 2) and N2 was used as curtain gas and collision activated dissociation gas. They were set to 40, 50, 20, and 4 instrument units (psi), respectively. The declustering potential (DP) was set at −119 V and the collision exit potential (CXP) at –10 V. All parameters of the source were defined by direct infusion of ZST316 and ZST152 1 µg/mL in mobile phase B. The final quantification was carried out in Selected Reaction Monitoring (SRM) with the following transitions: m/z 307.9 → 208.0 (collision energy of −29.5 eV) for ZST316 and m/z 271.9 → 170.9 (collision energy −24.7 eV) for ZST152 (Figure 2 and Figure 3). Data were processed with the software package Analyst 1.6.2 (AB SCIEX). […]

[3] = tested on: triple-negative breast cancer cells; settings: cited from earlier work; for suppression of vasculogenic mimicry: in vitro, triple-negative breast cancer cells
cancer cells = settings: cited from earlier work; for degradation in the culture media: culture media of cancer cell experiments
[4] = FVB, mouse, plasma, iv, 30 mg/kg, i.v. 30 mg/Kg, single bolus
[5] = FVB, mouse, plasma, iv, 30 mg/kg, i.v. 30 mg/Kg, read-out: AUC 0-8h
[6] = FVB, mouse, plasma, iv, 30 mg/kg, i.v. 30 mg/Kg, read-out: AUC 0-last
[7] = FVB, mouse, plasma, iv, 30 mg/kg, i.v. 30 mg/Kg, read-out: Half-life (converted)
[8] = FVB, mouse, plasma, iv, i.v. 30 mg/Kg
[9] = FVB, mouse, plasma, p.o. 60 mg/Kg vs i.v. 30 mg/Kg, dose normalized
[10] = FVB, mouse, plasma, po, 60 mg/kg, p.o. 60 mg/Kg, read-out: AUC 0-8h
[11] = FVB, mouse, plasma, po, 60 mg/kg, p.o. 60 mg/Kg, read-out: AUC 0-last
[12] = FVB, mouse, plasma, po, 60 mg/kg, p.o. 60 mg/Kg, read-out: Half-life (converted)
[13] = FVB, mouse, plasma, po, p.o. 60 mg/Kg

SMILES | stability in mice urine at 37 °C [1] | stability in urine stored frozen [1] | urinary excretion, range over oral and intravenous route [2] | Cmax [2, 4] [ng/mL] | AUC(0-t) [2, 5] [ng·h/mL] | AUC(0-t) [2, 6] [ng·h/mL] | half-life [2, 7] [min] | AUC(0-inf) [2, 8] [ng·h/mL] | Tmax [2, 8] [min] | clearance [2, 8] [mL/min/kg] | Vd [2, 8] [L/kg] | bioavailability [2, 9] [%] | AUC(0-t) [2, 10] [ng·h/mL] | AUC(0-t) [2, 11] [ng·h/mL] | half-life [2, 12] [min] | AUC(0-inf) [2, 13] [ng·h/mL] | Tmax [2, 13] [min] | 24 h urinary excretion (% of dose) ([2]; i.v. 30 mg/Kg) | time up to which detectable in plasma ([2]; i.v. 30 mg/Kg) [h] | 24 h urinary excretion (% of dose) ([2]; p.o. 60 mg/Kg) | also measured
COCCNC(=N)NCCC[C@H](N)c1noc(=O)[nH]1 [ZST152] | at least 24 h | one | 12.5%–22.2% and 12.5–22.2% | 24900 | 9250 | 9250 | 72 | 9260 | 5 | 54 | 5.49 | 33 | 6170 | 6170 | 51.6 | 6180 | 15 | 22.2 % of dose | 8 | 12.5 % of dose | half-life ([2]; i.v. 30 mg/Kg, 30 mg/kg): 70.2 min; time up to which measurable in plasma ([2]; p.o. 60 mg/Kg): 8 h; F % (bioavailability) ([2]; p.o. 60 mg/Kg vs i.v. 30 mg/Kg, dose normalized): 33.3%; urinary excretion relative to that of ZST316 ([2]; regardless of the route of administration): four- to fivefold; suppression of vasculogenic mimicry [3]: suppress vasculogenic mimicry; penetration of the cell membrane of cancer cells and intracellular DDAH1 inhibition (cancer cells): able to successfully penetrate the cell membrane of cancer cells and inhibit DDAH1 intracellularly; degradation in the culture media (cancer cells): did not significantly degrade
COCCNC(=N)NCCC[C@H](N)C(=O)NS(C)(=O)=O [ZST316] | at least 24 h | one | 2.3%–7.5% and 2.3–7.5% | 67400 | 21400 | 21500 | 360 | 21600 | 5 | 23.2 | 12.2 | < 5 | 1940 | 1940 | 97.8 | 2010 | 30 | 7.5 % of dose | 24 | 2.3 % of dose | Cmax ([2]; FVB, mouse, plasma, po, 60 mg/kg, p.o. 60 mg/Kg, single dose): 1020 ng/mL; concentration at 8 h ([2]; FVB, mouse, plasma, po, p.o. 60 mg/Kg, 8 h post dose): 29 ng/mL; AUC after intravenous administration relative to that of ZST152 ([2]; i.v. 30 mg/Kg): approximately twice; time up to which measurable in plasma ([2]; p.o. 60 mg/Kg): 8 h; suppression of in vitro vasculogenic mimicry and migration ([3]; MDA-MD-231 cells, ref recent demonstration by our group): suppresses in vitro vasculogenic mimicry and migration; suppression of vasculogenic mimicry [3]: suppress vasculogenic mimicry; penetration of the cell membrane of cancer cells and intracellular DDAH1 inhibition (cancer cells): able to successfully penetrate the cell membrane of cancer cells and inhibit DDAH1 intracellularly; degradation in the culture media (cancer cells): did not significantly degrade
